Marks after values point to notes of the source that are not given here. Bridge positions count the residues as written; N and C are the ends. Peptide text beside a SMILES is read from it.
Assays:
[1] = test system: E. coli ML35; test: Cell-suspension microbicidal assay (MMC); format: cell-based, Escherichia coli; conditions: for MMC, E. coli: lowest concentration that reduced cell viability by 99.9%, 10 mM PIPES, 5 mM glucose, pH 7.4, 2 h 37° C.
Summary of the method: (§1)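 Log-phase microbes (2×10^6 CFU/ml) exposed to two-fold peptide dilutions (0.062-8.0 μg/ml) in 10 mM PIPES, 5 mM glucose, pH 7.4, 2 h at 37 °C, then diluted 1:10 to 1:10^6 in broth and grown 24-48 h. MMC is the lowest concentration giving ≥99.9% killing (no pellet at 1:10^3).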

[2] = test system: S. aureus 502a; test: Cell-suspension microbicidal assay (MMC); format: cell-based, Staphylococcus aureus; conditions: for MMC, S. aureus: lowest concentration that reduced cell viability by 99.9%, 10 mM PIPES, 5 mM glucose, pH 7.4, 2 h 37° C.
Summary of the method: as §1

[3] = test system: S. aureus 502a; format: cell-based, Staphylococcus aureus; conditions: for enhancement of staphylocidal activity by serum: 10% normal human serum, FIG. 7
Experimental: Dose-dependent staphylocidal activity of each peptide was determined in assays containing 10% normal human serum. Percentages of killing are relative to activities of peptide-containing incubations in which serum was omitted.
(§2) To determine the effects of serum, salt, calcium chloride and magnesium chloride on microbicidal activities, peptide activities were determined in assays containing varying ionic strength, divalent cations, and serum. The effect of serum on staphylocidal activity of each peptide was determined by incubating 1×10^6 CFU/ml of S. aureus 502a with increasing peptide concentrations (0.5-4 μg/ml) in 10 mM PIPES, pH 7.4, containing 10% normal human serum for 2 h at 37° C. The effect of sodium chloride on staphylocidal activities was assessed with 5 μg/ml of each peptide in 10 mM PIPES, pH 7.4, containing varying concentrations of sodium chloride (0-160 mM). Effects of divalent cations, CaCl2, or MgCl2 (0-5.6 mM) were assessed in microbicidal assays against E. coli ML35. Bactericidal activities were determined by colony counting (see Example II), and microbicidal potencies were expressed as percent killing as follows:
(§3) [formula] where A=surviving bacteria (CFU/ml) after initial incubation with each peptide in buffer containing serum, salt, or divalent cations and Ao=bacterial CFU/ml in the “no-peptide” controls.

[4] = test system: C. albicans 16820; test: Cell-suspension microbicidal assay (MMC); format: cell-based, Candida albicans; conditions: for MMC, C. albicans: lowest concentration that reduced cell viability by 99.9%, 10 mM PIPES, 5 mM glucose, pH 7.4, 2 h 37° C.
Summary of the method: as §1

[5] = test system: S. aureus 502a, E. coli ML35, and C. albicans 16820; test: Cell-suspension microbicidal assay, statements across the test organisms (lowest MMC, overall ranges); format: cell-based; conditions: for 99.9% kill against one of the bacterial organisms: at 8 μg/ml, the highest concentration tested; for M: peptide concentration that kill 99.9% of either S. aureus, E. coli, or C. albicans, lowest MMC value; for fold higher MMC than the native cyclic peptide: de-cyclized analog versus native θ-defensin, three test organisms
Summary of the method: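 Log-phase organisms (2×10^6 CFU/ml) were exposed for 2 h at 37° C. to peptide (0.062–8.0 μg/ml final) in 10 mM PIPES/5 mM glucose, pH 7.4, then serially diluted in broth and grown 24–48 h. MMC was defined as ≥99.9% killing (no pellet at 1:10^3). SI was calculated as concentration giving 3% hemolysis in PBS divided by lowest MMC.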

[6] = test system: E. coli ML35; test: Membrane permeabilization assay (ONPG hydrolysis); format: cell-based, Escherichia coli; conditions: rates at 1 μg/ml concentration of each peptide
Summary of the method: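 ONPG hydrolysis by log-phase E. coli ML35 (1×10^6 CFU/ml) in 10 mM PIPES pH 7.4 with 3 mM ONPG, peptides at 0-8.0 μg/ml final; A405 followed for 60 min. Control: 0-4 μg/ml peptide incubated with recombinant β-galactosidase and 3 mM ONPG.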

[7] = test system: human erythrocytes; test: Hemolysis assay; format: cell-based
Experimental: For the hemolysis assay, the hemolytic activity of each peptide was determined by the method of Tam et al. (Tam et al., Eur. J. Biochem. 267:3289-3300 (2000)). Blood was obtained from a healthy donor in accordance to a protocol approved by the Institutional Review Board. Normal human serum was prepared from the same individual and stored at −20° C. Red blood cells (RBC) were prepared from blood collected in EDTA. RBC were harvested at 234×g for 10 min, 22° C., washed four times with 10 mM sodium phosphate, 150 mM NaCl, pH 7.4 (PBS), containing 4 mM EDTA and resuspended in PBS without EDTA. Peptides dissolved in 10 μl 0.01% HOAc were diluted with PBS to final concentrations of 0.3-100 μg/ml. RBC were added to a 2% final density in 100 μl. Incubation mixtures were also prepared with 10% serum. After 1 h incubation at 37° C., the cell suspensions were centrifuged at 234×g for 10 min, 22° C. Fifty-μl samples of the supernatants were removed, and the absorbance at 405 nm (A) was measured. Hemolytic activity of each peptide was calculated relative to lysis by 1% NP-40 using the following formula:
A selectivity index (SI=H/M) was calculated as a ratio of a peptide concentration (μg/ml) that causes 3% hemolysis (H) obtained from a dose-dependent hemolysis plot over 0.3 to 3 μg/ml of each peptide in PBS and the lowest MMC value (M) for any of the three test microorganisms (see Example II; Table 2).

[8] = test system: S. aureus 502a; format: cell-based, Staphylococcus aureus; conditions: physiologic salt / various concentrations of salt; FIG. 6
Experimental: The activity of each peptide (5 μg/ml) was determined in assays containing increasing concentrations of sodium chloride. Staphylocidal activities were expressed as percentages of killing obtained in the absence of additional NaCl.
as §2, §3

Structure (SMILES): CC(C)C[C@@H]1NC(=O)[C@@H]2CSSC[C@H](NC(=O)[C@H](CCCNC(=N)N)NC(=O)[C@@H](NC(=O)[C@@H](NC(=O)CNC(=O)[C@@H](N)CCCNC(=N)N)C(C)C)CSSC[C@@H](C(=O)N[C@@H](CCCNC(=N)N)C(N)=O)NC1=O)C(=O)N[C@@H](CC(C)C)C(=O)N[C@H]1CSSC[C@H](NC(=O)[C@H](C(C)C)NC(=O)CNC(=O)[C@H](CCCNC(=N)N)NC(=O)[C@H](CCCNC(=N)N)NC1=O)C(=O)N[C@@H](CCCNC(=N)N)C(=O)N2 [3:1 aRTD-3-NH] (H-RGVCRCLCRRGVCRCLCR-NH2; disulfide 4-17, 6-15, 8-13; N-terminus assumed)
- MMC, E. coli [1]: 1.0 µg/mL
- Killing percentage, S. aureus (MMC not reached) ([2]; at 8 μg/ml, the highest concentration tested): (99%)^b
- fold lower staphylocidal activity than RTD-3 and PG-1 ([2]; from MMC, Table 2): at least 8 fold
- MMC, S. aureus [2]: > 8 µg/mL
- inhibition of bactericidal activity in serum ([3]; 502a): 20-50%
- MMC, C. albicans [4]: 0.8 µg/mL
- 99.9% kill against one of the bacterial organisms [5]: did not achieve a 99.9% kill
- M [5]: 0.75 µg/mL
- ONPG hydrolysis [6]: 9.4 (A405/sec) · 10^−5

Structure (SMILES): CC(C)C[C@H](NC(=O)[C@H](CCCNC(=N)N)NC(=O)CNC(=O)CN)C(=O)N[C@H]1CSSC[C@@H](C(=O)N[C@H](C(=O)NCC(=O)N[C@@H](CCCNC(=N)N)C(=O)N[C@@H](CCCNC(=N)N)C(N)=O)C(C)C)NC(=O)[C@H](C(C)C)NC(=O)[C@@H]2CSSC[C@H](NC(=O)[C@H](Cc3ccc(O)cc3)NC1=O)C(=O)N[C@@H](CCCNC(=N)N)C(=O)N[C@@H](CCCNC(=N)N)C(=O)N[C@@H](CCCNC(=N)N)C(=O)N[C@@H](Cc1ccccc1)C(=O)N2 [4:4 PG-1-NH] (H-GGRLCYCRRRFCVCVGRR-NH2; disulfide 5-14, 7-12; N-terminus assumed)
- MMC, E. coli [1]: 1.0 µg/mL
- MMC, S. aureus [2]: 0.5 µg/mL
- enhancement of staphylocidal activity by serum [3]: ~40%
- MMC, C. albicans [4]: 1.5 µg/mL
- M [5]: 0.5 µg/mL
- ONPG hydrolysis [6]: 12.4 (A405/sec) · 10^−5

Structure (SMILES): CC(C)C[C@H](NC(=O)[C@H](CCCNC(=N)N)NC(=O)CNC(=O)CNC(=O)[C@@H](N)CCCNC(=N)N)C(=O)N[C@H]1CSSC[C@@H](C(=O)N[C@H](C(=O)NCC(=O)N[C@@H](CCCNC(=N)N)C(=O)O)C(C)C)NC(=O)[C@H](C(C)C)NC(=O)[C@@H]2CSSC[C@H](NC(=O)[C@H](Cc3ccc(O)cc3)NC1=O)C(=O)N[C@@H](CCCNC(=N)N)C(=O)N[C@@H](CCCNC(=N)N)C(=O)N[C@@H](CCCNC(=N)N)C(=O)N[C@@H](Cc1ccccc1)C(=O)N2 [PG-1-OH] (H-RGGRLCYCRRRFCVCVGR-OH; disulfide 6-15, 8-13; N-terminus assumed)
- fold lower potency against E. coli than native PG-1 ([1]; from MMC, Table 2): 1- to 2 fold
- MMC, E. coli [1]: 1.5 µg/mL
- fold lower staphylocidal potency than native PG-1 ([2]; from MMC, Table 2): 5 fold
- MMC, S. aureus [2]: 2.0 µg/mL
- percent less hemolytic than native PG-1 [7]: about 50%
- enhancement of staphylocidal activity by serum [3]: 25%
- fold lower candidacidal potency than native PG-1 ([4]; from MMC, Table 2): 1- to 2 fold
- MMC, C. albicans [4]: 1.5 µg/mL
- fold less microbicidal than PG-1 ([5]; Table 5): 2-3 fold
- M [5]: 1.5 µg/mL
- ONPG hydrolysis [6]: 10.7 (A405/sec) · 10^−5

Structure (SMILES): CC[C@H](C)[C@@H]1NC(=O)[C@@H]2CSSC[C@H](NC(=O)[C@H](CCCNC(=N)N)NC(=O)[C@@H](NC(=O)[C@H](Cc3ccccc3)NC(=O)CN)CSSC[C@@H](C(=O)N[C@H](C(=O)N[C@@H](CCCNC(=N)N)C(=O)O)[C@@H](C)O)NC1=O)C(=O)N[C@@H](CC(C)C)C(=O)N[C@H]1CSSC[C@H](NC(=O)[C@H](C(C)C)NC(=O)CNC(=O)[C@H](CCCNC(=N)N)NC(=O)[C@H](CCCNC(=N)N)NC1=O)C(=O)N[C@@H](CCCNC(=N)N)C(=O)N2 [aRTD-1-OH] (H-GFCRCLCRRGVCRCICTR-OH; disulfide 3-16, 5-14, 7-12; N-terminus assumed)
- MMC, S. aureus [2]: 4.5 µg/mL
- H ([7]; peptide concentration that causes 3% hemolysis, calculated from dose-dependent hemolysis plot over 0.3-3 μg/ml in PBS): 15.0 µg/mL
- MMC, C. albicans [4]: 4.0 µg/mL
- 99.9% kill against one of the bacterial organisms [5]: did not achieve a 99.9% kill
- fold higher MMC than the native cyclic peptide [5]: 4 fold
- M [5]: 4 µg/mL
- ONPG hydrolysis [6]: 2.4 (A405/sec) · 10^−5
- effect of salt on microbicidal activity (in words) [8]: intermediate

Structure (SMILES): CC(C)C[C@@H]1NC(=O)[C@@H]2CSSC[C@H](NC(=O)[C@H](CCCNC(=N)N)NC(=O)[C@@H](NC(=O)[C@@H](NC(=O)CN)C(C)C)CSSC[C@@H](C(=O)N[C@@H](CCCNC(=N)N)C(=O)N[C@@H](CCCNC(=N)N)C(=O)O)NC1=O)C(=O)N[C@@H](CC(C)C)C(=O)N[C@H]1CSSC[C@H](NC(=O)[C@H](C(C)C)NC(=O)CNC(=O)[C@H](CCCNC(=N)N)NC(=O)[C@H](CCCNC(=N)N)NC1=O)C(=O)N[C@@H](CCCNC(=N)N)C(=O)N2 [aRTD-3-OH] (H-GVCRCLCRRGVCRCLCRR-OH; disulfide 3-16, 5-14, 7-12; N-terminus assumed)
- MMC, S. aureus [2]: 1.5 µg/mL
- MMC, C. albicans [4]: 1.5 µg/mL
- fold higher MMC than the native cyclic peptide [5]: 1-2 fold
- M [5]: 1.5 µg/mL
- effect of salt on microbicidal activity (in words) [8]: least affected

Reference: patent US7462598B2, “Antimicrobial theta defensins, analogs thereof, and methods of use” (priority 2002, dated 2008)
